# Assay results as given in PMC5589098 (PLoS ONE, 2017).
# Read-outs that look alike come from different tables or passages of the source. Where a SMILES comes first, the peptide text is derived from it. Bridges are numbered along the chain shown (N, C = ends).
# How the values were obtained:
# [1] = target: human (h) Cav2.2 channels in SH-SY5Y cells (Homo sapiens, UniProt Q00975); test: cell-based
# hCav1.3 = hCav1.3 (Homo sapiens, UniProt Q01668); test: cell-based
# hCav3.1 = hCav3.1 (Homo sapiens, UniProt O43497); test: cell-based
# [2] = target: rat (r) Cav2.2 (Cav α1b + Cav β1b + Cav α2δ) (Rattus norvegicus, UniProt Q02294); test: cell-based
# hNav1.1 = hNav1.1 (Homo sapiens, UniProt P35498); test: cell-based
# hNav1.2 = hNav1.2 (Homo sapiens, UniProt Q99250); test: cell-based
# hNav1.3 = hNav1.3 (Homo sapiens, UniProt Q9NY46); test: cell-based
# hNav1.4 = hNav1.4 (Homo sapiens, UniProt P35499); test: cell-based; format: cell-based
# hNav1.5 = hNav1.5 (Homo sapiens, UniProt Q14524); test: cell-based; format: cell-based
# Sequence of hNav1.5 (Q14524 whole entry): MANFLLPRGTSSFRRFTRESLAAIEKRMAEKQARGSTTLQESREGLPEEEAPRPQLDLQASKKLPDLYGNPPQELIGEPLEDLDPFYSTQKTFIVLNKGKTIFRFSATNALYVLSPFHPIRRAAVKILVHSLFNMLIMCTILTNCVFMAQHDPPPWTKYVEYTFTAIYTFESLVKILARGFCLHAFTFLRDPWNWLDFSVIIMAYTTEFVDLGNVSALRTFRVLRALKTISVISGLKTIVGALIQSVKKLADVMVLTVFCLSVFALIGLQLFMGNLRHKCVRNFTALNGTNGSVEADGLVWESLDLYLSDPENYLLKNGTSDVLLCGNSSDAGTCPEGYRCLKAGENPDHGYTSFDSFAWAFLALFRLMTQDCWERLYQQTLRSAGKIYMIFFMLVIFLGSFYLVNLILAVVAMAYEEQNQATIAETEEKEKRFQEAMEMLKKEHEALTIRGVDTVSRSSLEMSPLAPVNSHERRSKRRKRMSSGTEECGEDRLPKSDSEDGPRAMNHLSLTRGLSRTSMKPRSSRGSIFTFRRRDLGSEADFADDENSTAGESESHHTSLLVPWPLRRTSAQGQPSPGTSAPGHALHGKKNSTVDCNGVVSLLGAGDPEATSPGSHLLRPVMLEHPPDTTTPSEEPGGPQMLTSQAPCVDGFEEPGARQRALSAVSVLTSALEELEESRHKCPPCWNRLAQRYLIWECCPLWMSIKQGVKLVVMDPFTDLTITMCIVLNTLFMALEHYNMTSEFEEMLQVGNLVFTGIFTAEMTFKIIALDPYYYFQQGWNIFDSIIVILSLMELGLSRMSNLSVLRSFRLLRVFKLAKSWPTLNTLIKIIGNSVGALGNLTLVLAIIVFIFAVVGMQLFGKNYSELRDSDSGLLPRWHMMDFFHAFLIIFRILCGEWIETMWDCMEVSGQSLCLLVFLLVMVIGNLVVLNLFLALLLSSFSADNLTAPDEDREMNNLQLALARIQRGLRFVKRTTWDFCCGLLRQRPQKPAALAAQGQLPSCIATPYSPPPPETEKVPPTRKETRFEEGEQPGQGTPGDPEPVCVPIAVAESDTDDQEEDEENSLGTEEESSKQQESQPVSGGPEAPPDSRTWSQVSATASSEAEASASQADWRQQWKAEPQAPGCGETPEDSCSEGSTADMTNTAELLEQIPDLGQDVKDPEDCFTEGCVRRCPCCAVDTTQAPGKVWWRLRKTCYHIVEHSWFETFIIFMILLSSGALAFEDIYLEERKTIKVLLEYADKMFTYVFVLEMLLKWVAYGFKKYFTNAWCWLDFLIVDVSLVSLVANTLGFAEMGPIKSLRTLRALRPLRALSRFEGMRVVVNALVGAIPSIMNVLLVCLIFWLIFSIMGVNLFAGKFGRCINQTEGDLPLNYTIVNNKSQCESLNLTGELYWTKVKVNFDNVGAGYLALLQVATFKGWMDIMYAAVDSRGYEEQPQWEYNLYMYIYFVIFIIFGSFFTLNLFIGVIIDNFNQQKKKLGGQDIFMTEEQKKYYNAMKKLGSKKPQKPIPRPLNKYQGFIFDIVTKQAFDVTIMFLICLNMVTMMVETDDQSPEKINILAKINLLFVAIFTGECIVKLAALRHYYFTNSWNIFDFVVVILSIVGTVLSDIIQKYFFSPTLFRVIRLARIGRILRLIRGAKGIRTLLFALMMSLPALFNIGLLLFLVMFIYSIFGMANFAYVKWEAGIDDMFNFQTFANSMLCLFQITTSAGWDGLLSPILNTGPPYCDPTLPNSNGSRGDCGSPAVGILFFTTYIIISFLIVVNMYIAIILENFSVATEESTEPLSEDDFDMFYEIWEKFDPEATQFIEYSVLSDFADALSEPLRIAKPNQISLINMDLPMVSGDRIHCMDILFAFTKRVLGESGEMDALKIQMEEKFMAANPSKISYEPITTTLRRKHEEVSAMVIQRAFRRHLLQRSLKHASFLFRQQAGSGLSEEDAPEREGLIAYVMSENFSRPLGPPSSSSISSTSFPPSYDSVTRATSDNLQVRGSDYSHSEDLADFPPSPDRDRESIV
# hNav1.6 = hNav1.6 (Homo sapiens, UniProt Q9UQD0); test: cell-based; format: cell-based
# hNav1.7 [3] = target: T1, hNav1.7 (Homo sapiens, UniProt Q15858); test: cell-based
# T1 sequence (Q15858 whole entry): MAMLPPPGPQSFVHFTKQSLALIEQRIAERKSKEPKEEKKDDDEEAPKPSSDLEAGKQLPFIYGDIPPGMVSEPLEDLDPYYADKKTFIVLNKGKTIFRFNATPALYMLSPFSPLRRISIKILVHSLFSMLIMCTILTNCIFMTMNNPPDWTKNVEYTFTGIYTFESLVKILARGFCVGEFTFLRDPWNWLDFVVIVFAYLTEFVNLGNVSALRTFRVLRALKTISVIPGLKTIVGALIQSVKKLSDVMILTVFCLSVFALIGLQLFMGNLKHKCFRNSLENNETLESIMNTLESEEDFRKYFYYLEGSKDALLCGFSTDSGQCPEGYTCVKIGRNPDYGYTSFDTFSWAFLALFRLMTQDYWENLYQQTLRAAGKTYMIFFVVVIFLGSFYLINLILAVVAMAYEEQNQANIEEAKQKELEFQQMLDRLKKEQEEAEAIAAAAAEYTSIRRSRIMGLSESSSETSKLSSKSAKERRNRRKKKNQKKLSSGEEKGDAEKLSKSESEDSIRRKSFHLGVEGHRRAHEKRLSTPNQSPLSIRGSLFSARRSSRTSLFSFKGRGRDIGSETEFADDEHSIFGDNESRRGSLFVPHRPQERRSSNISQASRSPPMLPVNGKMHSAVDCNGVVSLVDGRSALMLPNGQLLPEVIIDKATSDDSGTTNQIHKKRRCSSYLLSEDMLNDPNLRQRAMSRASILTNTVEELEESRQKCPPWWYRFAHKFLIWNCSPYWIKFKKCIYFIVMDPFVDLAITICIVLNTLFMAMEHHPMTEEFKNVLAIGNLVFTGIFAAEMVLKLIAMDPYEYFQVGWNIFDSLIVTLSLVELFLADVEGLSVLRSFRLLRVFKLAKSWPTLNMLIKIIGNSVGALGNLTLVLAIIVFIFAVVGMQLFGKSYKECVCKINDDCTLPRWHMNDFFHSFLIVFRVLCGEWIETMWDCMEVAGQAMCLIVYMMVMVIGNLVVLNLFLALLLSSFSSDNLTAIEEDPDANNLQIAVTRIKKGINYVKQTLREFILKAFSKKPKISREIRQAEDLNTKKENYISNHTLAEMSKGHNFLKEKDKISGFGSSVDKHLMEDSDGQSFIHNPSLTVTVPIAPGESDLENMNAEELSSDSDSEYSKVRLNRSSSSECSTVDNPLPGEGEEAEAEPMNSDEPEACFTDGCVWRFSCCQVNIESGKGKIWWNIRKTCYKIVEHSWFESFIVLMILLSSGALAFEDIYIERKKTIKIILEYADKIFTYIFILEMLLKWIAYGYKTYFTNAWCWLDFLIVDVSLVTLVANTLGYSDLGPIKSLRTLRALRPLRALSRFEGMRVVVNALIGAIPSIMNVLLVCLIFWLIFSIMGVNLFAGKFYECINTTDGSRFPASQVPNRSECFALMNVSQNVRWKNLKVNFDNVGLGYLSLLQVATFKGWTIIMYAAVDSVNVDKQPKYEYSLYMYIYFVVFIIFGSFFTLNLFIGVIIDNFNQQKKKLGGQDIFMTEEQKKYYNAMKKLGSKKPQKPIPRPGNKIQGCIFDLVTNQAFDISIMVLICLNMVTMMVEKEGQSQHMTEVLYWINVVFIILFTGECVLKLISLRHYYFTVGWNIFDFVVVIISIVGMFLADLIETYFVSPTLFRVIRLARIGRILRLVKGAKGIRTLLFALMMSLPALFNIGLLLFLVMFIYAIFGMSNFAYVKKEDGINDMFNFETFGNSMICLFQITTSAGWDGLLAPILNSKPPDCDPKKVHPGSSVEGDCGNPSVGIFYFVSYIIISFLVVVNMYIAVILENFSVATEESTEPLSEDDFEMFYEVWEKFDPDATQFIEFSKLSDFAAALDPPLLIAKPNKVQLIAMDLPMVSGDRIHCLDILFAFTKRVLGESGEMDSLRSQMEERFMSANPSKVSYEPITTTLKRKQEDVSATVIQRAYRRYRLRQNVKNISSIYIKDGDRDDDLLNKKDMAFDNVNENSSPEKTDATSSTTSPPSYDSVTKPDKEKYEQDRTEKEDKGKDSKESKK
# T1 sequence (Q07699 19-218, further chain): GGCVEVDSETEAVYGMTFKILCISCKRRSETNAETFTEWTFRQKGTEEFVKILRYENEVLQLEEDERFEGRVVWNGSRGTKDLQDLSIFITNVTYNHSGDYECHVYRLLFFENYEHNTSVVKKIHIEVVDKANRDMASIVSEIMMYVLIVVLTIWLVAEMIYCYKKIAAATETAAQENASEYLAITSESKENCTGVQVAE
# hNav1.8 = hNav1.8 (Homo sapiens, UniProt Q9Y5Y9); test: cell-based
# hNav1.7 [4] = target: T1, hNav1.7; test: cell-based; remark: listed apart in the source
# C57BL/6J mice = details: mouse, in vivo
# [5] = system: adult sheep blowflies (Lucilia cuprina); details: in vivo
# [6] = system: Nav1.7-mediated pain in C57BL/6J mice; details: mouse, in vivo
SMILES,IC50 [1] [µM],activity at Cav1.3 (hCav1.3),activity at Cav3.1 (hCav3.1),IC50 (hNav1.1) [µM],IC50 (hNav1.2) [µM],IC50 (hNav1.3) [µM],IC50 (hNav1.5) [µM],IC50 (hNav1.6) [µM],IC50 (hNav1.7 [3]) [µM],IC50 (hNav1.8) [µM],ataxia index (number of foot slips/meters travelled) (C57BL/6J mice),side effects (C57BL/6J mice),also measured
"CC(C)C[C@H](NC(=O)[C@H](CC(=O)O)NC(=O)[C@H](Cc1ccc(O)cc1)NC(=O)[C@H](CCCCN)NC(=O)[C@@H]1CSSC[C@@H]2NC(=O)[C@H](CCCCN)NC(=O)[C@H](CC(=O)O)NC(=O)[C@H](CC(N)=O)NC(=O)[C@H](CCCCN)NC(=O)[C@@H]3CCCN3C(=O)[C@H](CC(=O)O)NC(=O)[C@@H]3CSSC[C@H](NC(=O)[C@H](CO)NC(=O)[C@H](Cc4ccc(O)cc4)NC(=O)[C@H](CC(N)=O)NC(=O)[C@H](CCCCN)NC(=O)[C@H](CSSC[C@H](NC(=O)[C@@H](N)CC(=O)O)C(=O)N[C@@H](CC(C)C)C(=O)NCC(=O)N[C@@H](Cc4c[nH]c5ccccc45)C(=O)N[C@@H](Cc4ccccc4)C(=O)N[C@@H](CCCCN)C(=O)N[C@@H](CO)C(=O)N3)NC2=O)C(=O)N[C@@H](CO)C(=O)N[C@@H](CCCNC(=N)N)C(=O)N[C@@H](CCCNC(=N)N)C(=O)N[C@@H](CC(=O)O)C(=O)N[C@@H](CCCNC(=N)N)C(=O)N[C@@H](Cc2c[nH]c3ccccc23)C(=O)N1)C(N)=O [Cd1a] (H-DCLGWFKSCDPKNDKCCKNYSCSRRDRWCKYDL-NH2; disulfide 2-17, 9-22, 16-29)",2.6,inactive,inactive,2.18 ± 0.69,0.13 ± 0.04,> 30,> 30,> 30,3.34 ± 1.56,6.92 ± 3.44,no significant effect,did not produce any apparent side effects,"IC50 (hCav1.3): > 30 µM; IC50 (hCav3.1): > 30 µM; IC50 [2]: 3 µM; inhibition at 3 µM ([2]; TS/A, 3 μM, n = 9, read-out: inhibition of rCav2.2 currents): ~50%; IC50 (hNav1.4): > 30 µM; IC50 at Nav1.4 (hNav1.4): inactive; IC50 at Nav1.5 (hNav1.5): inactive; IC50 at Nav1.6 (hNav1.6): inactive; enhanced recovery from inhibition by strong positive-depolarising pulse (hNav1.7 [4]): ~ 70%; IC50 (hNav1.7 [4]; n = 10, read-out: IC50 at hNav1.7 (peak current)): 0.016 µM; paralysis or lethality at 24 h [5]: No signs of paralysis or lethality; recovery from paralysis [5]: all flies fully recovered"
"CC(C)C[C@H](NC(=O)[C@H](CC(=O)O)NC(=O)[C@H](Cc1ccc(O)cc1)NC(=O)[C@H](CCCCN)NC(=O)[C@@H]1CSSC[C@@H]2NC(=O)[C@H](CCCCN)NC(=O)[C@H](CC(=O)O)NC(=O)[C@H](CC(N)=O)NC(=O)[C@H](CCCCN)NC(=O)[C@@H]3CCCN3C(=O)[C@H](CC(=O)O)NC(=O)[C@@H]3CSSC[C@H](NC(=O)[C@H]([C@@H](C)O)NC(=O)[C@H](Cc4ccc(O)cc4)NC(=O)[C@H](CC(N)=O)NC(=O)[C@H](CCCCN)NC(=O)[C@H](CSSC[C@H](NC(=O)[C@@H](N)CC(=O)O)C(=O)N[C@@H](CC(C)C)C(=O)NCC(=O)N[C@@H](Cc4c[nH]c5ccccc45)C(=O)N[C@@H](Cc4ccccc4)C(=O)N[C@@H](CCCCN)C(=O)N[C@@H](CO)C(=O)N3)NC2=O)C(=O)N[C@@H](CO)C(=O)N[C@@H](CCCNC(=N)N)C(=O)N[C@@H](CCCNC(=N)N)C(=O)N[C@@H](CC(=O)O)C(=O)N[C@@H](CCCNC(=N)N)C(=O)N[C@@H](Cc2c[nH]c3ccccc23)C(=O)N1)C(N)=O [Cm1a] (H-DCLGWFKSCDPKNDKCCKNYTCSRRDRWCKYDL-NH2; disulfide 2-17, 9-22, 16-29)",0.4 ± 0.2,inactive,inactive,1.06 ± 0.32,,> 10,> 10,> 10,5.12 ± 2.85,> 10,,did not produce any apparent side effects,IC50 (hNav1.2; read-out: IC50 at Nav1.2): 0.07 µM
"CC(C)C[C@H](NC(=O)[C@H](Cc1ccc(O)cc1)NC(=O)[C@H](Cc1ccc(O)cc1)NC(=O)[C@H](CCCCN)NC(=O)[C@@H]1CSSC[C@@H]2NC(=O)[C@H](CCCCN)NC(=O)[C@H](CC(=O)O)NC(=O)[C@H](CC(N)=O)NC(=O)[C@H](CCCCN)NC(=O)[C@@H]3CCCN3C(=O)[C@H](CC(=O)O)NC(=O)[C@@H]3CSSC[C@H](NC(=O)[C@H]([C@@H](C)O)NC(=O)[C@H](Cc4ccc(O)cc4)NC(=O)[C@H](CC(N)=O)NC(=O)[C@H](CCCCN)NC(=O)[C@H](CSSC[C@H](NC(=O)[C@@H](N)CC(=O)O)C(=O)N[C@@H](CC(C)C)C(=O)NCC(=O)N[C@@H](Cc4c[nH]c5ccccc45)C(=O)N[C@@H](Cc4ccccc4)C(=O)N[C@@H](CCCCN)C(=O)N[C@@H](CO)C(=O)N3)NC2=O)C(=O)N[C@@H](CO)C(=O)N[C@@H](CCCNC(=N)N)C(=O)N[C@@H](CCCNC(=N)N)C(=O)N[C@@H](CC(=O)O)C(=O)N[C@@H](CCCNC(=N)N)C(=O)N[C@@H](Cc2c[nH]c3ccccc23)C(=O)N1)C(N)=O [Cm1b] (H-DCLGWFKSCDPKNDKCCKNYTCSRRDRWCKYYL-NH2; disulfide 2-17, 9-22, 16-29)",1.1 ± 0.6,inactive,inactive,0.17 ± 0.11,0.08 ± 0.02,5.57 ± 0.04,> 10,3.99 ± 1.6,0.23 ± 0.13,> 10,,did not produce any apparent side effects,
"NC1=N[C@H](O)[C@H]2[C@H]3O[C@]4(O)O[C@@H]([C@@H](O)[C@@]2(N1)[C@@H]4O)[C@]3(O)CO [TTX, tetrodotoxin]",,,,,,,,,,,significantly increased the ataxia index (*p < 0.05),,reversal of OD1-evoked pain behaviours [6]: fully reversed
